Data reported in patent US4863748A, “Dietary products and uses comprising methylsulfonylmethane” (priority 1986, dated 1989).
Read-outs that look alike come from different tables or passages of the source.

Legend:
[1] = tested on: bilateral fibrinous pleuritis; assay: Bilateral fibrinous pleuritis in a breeding mare (Examples 4 and 24); type: in vivo, horse (mare)
Procedure: A valuable breeding mare, treated for a respiratory infection developed bilateral fibrinous pleuritis, easily heard with auscultation of the chest. After six weeks therapy with a combination of conventional antibiotics and anti-inflammatory drugs, there was little if any improvement. Conventional therapy was terminated. Methylsulfonylmethane was added to the diet of this refractory case (24 g, twice daily, over a period of 5 days). This was the only special treatment given. […] Auscultation of the chest was negative.

[2] = tested on: myositis ossificans generalis; assay: Myositis ossificans generalis (Example 35); type: in vivo, human; details: one teaspoon orally in split daily doses, nearly two years
Excerpt: Their family belongs to a group of families each with a family member suffering from the disease. They have been on one teaspoon of methylsulfonylmethane orally, in split daily doses for nearly two years. […] No other child in the group is on methylsulfonylmethane and all are deteriorating physically. The disease cause is unknown but probably is a genetic/autoimmune type of disorder.

epiphysitis = details: oral; cited from earlier work
[3] = tested on: nutritional secondary hyperparathyroidism with obvious epiphysitis; assay: Nutritional secondary hyperparathyroidism with epiphysitis in horses (Example 3); type: in vivo, horse; details: 12 grams twice daily in feed; conventional treatment 60-90 days minimum
Excerpt: Calcium/phosphorous balance is critical in the horse, where these elements comprise roughly 70% of the mineral content of the horse's body. Calcium deficiency, or the reverse, viz., phosphorous excess, is undesirable. Phosphorous excess in feed will decrease intestinal absorption, resulting in lowered blood plasma calcium. One result is a stimulation in the dietary deficiency condition called nutritional secondary hyperparathyroidism. Calcium denied for bone development results in an enlargement of structurally defective fibrous tissue. In horse leg bones, it is called epiphysitis when stress inflammation is presented.
Two colts and four fillies were studied, all diagnosed as having nutritional secondary hyperparathyroidism with obvious epiphysitis. Each was provided with 12 grams of methylsulfonylmethane twice daily in a bran/molasses blend intermixed with their standard dry feed prior to feeding. The supplemented feed was well accepted. All signs and symptoms of this nutritional deficiency disease was corrected in from seven to ten days. Conventional treatment for correcting dietary calcium deficiency requires a minimum of 60-90 days before relief from inflammation is obtained. Except for the added methylsulfonylmethane, there was no change in the diet of these […] horses. The added dietary factor corrected this easily recognizable dietary deficiency in all of the horses.

[4] = tested on: emphysema and lung tumor respiratory deficiency; assay: Treatment of lung dysfunction (Example 29); type: in vivo, human
Procedure: Seven human subjects with respiratory deficiency were given methylsulfonylmethane by the oral route in amounts ranging from 250-1,500 mg/day, in single or divided units. Five presented emphysema believed associated with cigarette smoking. Two presented tumor involvement of the lung with additional function impairment due to pleural fluid accumulation.
Two of five subjects with emphysema had prior cardiorespiratory function tests and follow-up evaluations at six and eight weeks after starting a course of 500 mg/day orally of methylsulfonylmethane.
Prior to and during the test period, at approximately two-week intervals, all presenting emphysema were required to walk a measured distance compatible with their physical resources. […] The lung cavity fluid problem of each subject disappeared during the first months of the test period.

rabbit eye = assay: Rabbit eye irritated with sodium lauryl sulfate (Example 14); type: in vivo; details: 10% aqueous solution every hour
[5] = tested on: sharp pain spasms in the lower abdominal region; assay: Acute pain, comparison with codeine, subject one (Example 33); type: in vivo, human
Procedure: Codeine and methylsulfonylmethane were compared for the relief of pain in subject one, a person who had sharp pain spasms in the lower abdominal region. Subject's appendix had been removed. Pain began after suffering an accidental traumatic blow to the abdomen during a volley ball game. Pyelogram examination indicated no obstruction. […] Codeine (2) plus 1/4 grain with aspirin every 4 hours, provided some relief. The codeine/aspirin was discontinued and 1 g methylsulfonylmethane in warm water was given. A half-hour later all discomfort ceased. A second gram of methylsulfonylmethane in water was given 4 hours later, after which the subject continued pain free.

[6] = tested on: pruritis, acne, acne rosacea; assay: Connective tissue and dermatological disorders (Example 13); type: in vivo, human
Excerpt: Teenagers found methylsulfonylmethane in cola drinks a particularly acceptable satisfactory combination when treating acne. With rosacea, visual improvement was much slower.

[7] = Tolerance and toxicity on ingestion; type: in vivo, animals; details: for NOAEL: in vivo, po
Excerpt: The methylsulfonylmethane is usually provided in the aninmal's normal feed rations, periodically throughout the day or on successive days, or both, e.g., for 2 to 21 days or even longer. The daily food ration appropriate for the animal being fed is supplemented with an amount of methylsulfonylmethane calculated to correspond to a predetermined amount per total body weight of the animals being fed. The exact amount of methylsulfonylmethane ingested each day is not always critical, particularly when methylsulfonylmethane administration is over an extended period of days, because the ingested methylsulfonylmethane accumulates in the body tissues and fluids, i.e., reaches an effective titer. Methylsulfonylmethane-supplemented rations providing levels of as low as 0.5-1 mg/kg animal body weight are sometimes effective and levels as high as 300 mg/kg body weight or more are well tolerated. The usual target level per individual animal is about 0.2-2.0 mg/kg body weight preferably 0.5-1.0 mg per kg body weight. Total daily supplements corresponding to up to about 1 gm/kg body weight or more, are preferably employed, depending on the degree of deficiency. Healthy animals often have methylsulfonylmethane blood levels of at least 1 ppm, and desirably, enough methylsulfonylmethane is provided to raise blood levels to above 1 ppm. The oral ingestion of amounts of methylsulfonylmethane in excess of that required to elevate blood levels is not harmful because of the extremely non-toxic nature of methylsulfonylmethane.
One can safely administer 1-2 grams/kg body wt. of methylsulfonylmethane on a daily basis (equal to 1000-2000 ppm w/w basis). One therefore builds a safely tolerated blood level of about 4000 ppm, which level is highly toxic to many infective organism yet is harmless to the host. Methylsulfonylmethane provides a unique new therapeutic approach, used alone or with concurrent, conventional therapy.

leg cramps = assay: Night leg cramps in geriatric patient (Example 26); type: in vivo, human; details: 10 mg/kg/day
Procedure: Administer methylsulfonylmethane to a geriatric patient (over 65 years) suffering from chronic night leg cramps at the rate of 10 mg/kg/day, either in tablet or capsule form, as described in parent application Ser. Nos. 418,110, 584,354 or 601,771, or in admixture with one or more foodstuffs ingested daily by the patient, e.g., milk, coffee, tea, cold desserts, etc. Within about 2 days, the leg cramps will diminish in frequency or disappear.

[8] = 24 g twice daily, 5 days (Example 4)

CS(C)(=O)=O [methylsulfonylmethane]
response of pleuritis ([1]; 2×12 gm/day in diet, five days (Example 24)): responded favorably (normal breathing, negative ausculation of the chest)
auscultation of the chest [1, 8]: negative
breathing at fifth day [1, 8]: returned to normal
pain at fifth day [1, 8]: no longer demonstrated pain
state over the next two years ([1]; followed two years after treatment (Example 4)): normal and healthy
condition of the patient [2]: out of their wheelchair and is improving
disease process ([2]; child A. Z.): stopped
correction of epiphysitis (epiphysitis): rapidly corrected
time to correction of all signs and symptoms [3]: seven to ten
cardiorespiratory function values, in particular arterial oxygen tension ([4]; 500 mg/day orally, two emphysema subjects, six and eight weeks): both had values in the normal range
comfortable walking distance ([4]; emphysema sufferers, alone or with 1000 mg ascorbic acid/day, within 2-4 weeks): at least doubled
alertness, comfort and outlook ([4]; two subjects with lung tumors): more alert, comfortable, and with a better outlook and attitude
lung cavity fluid problem ([4]; two subjects with lung tumors, first months): disappeared
clearing of irritated eye (rabbit eye): quickly cleared
time until all discomfort ceased ([5]; 1 g in warm water, oral): A half-hour
pain after second gram ([5]; second gram 4 hours later): pain free
response of pruritis and acne ([6]; about 100-1000 mg per day): respond promptly
response of dermatological problems ([6]; diet supplemented): respond favorably
visual improvement with rosacea ([6]; in vivo): much slower
time before telangiectasis diminished ([6]; subject three, 500 mg daily): at least several weeks
acute and chronic toxicity ([7]; in the host's diet): remarkably low
NOAEL ([7]; daily basis, read-out: safely administered daily dose): 1000 to 2000 mg/kg/day
NOAEL ([7]; supplemented rations, or more, read-out: well tolerated level in rations): ≥ 300 mg/kg
toxicity at high (greater than 1 gm/kg body wt.) blood levels ([7]; primates, at least two years): lack evidence of methylsulfonylmethane toxicity
time until leg cramps diminish in frequency or disappear (leg cramps): about 2 days
